The source of these data is US6124115A, “Production and use of isolated type 5 17β-hydroxysteroid dehydrogenase” (Endorecherche Inc., priority 1995, dated 2000).

The assay has as its target T1, human type 5 17β-HSD (Homo sapiens, UniProt P42330).
T1 construct: encodes a protein having 323 amino acids with a calculated molecular weight of 36,844 daltons; expressed in transfected cells; host or cells: human embryonal kidney 293 cells (ATCC CRL 1573), transient transfection with pCMV vector
T1 sequence (P42330 1-323 H5Q): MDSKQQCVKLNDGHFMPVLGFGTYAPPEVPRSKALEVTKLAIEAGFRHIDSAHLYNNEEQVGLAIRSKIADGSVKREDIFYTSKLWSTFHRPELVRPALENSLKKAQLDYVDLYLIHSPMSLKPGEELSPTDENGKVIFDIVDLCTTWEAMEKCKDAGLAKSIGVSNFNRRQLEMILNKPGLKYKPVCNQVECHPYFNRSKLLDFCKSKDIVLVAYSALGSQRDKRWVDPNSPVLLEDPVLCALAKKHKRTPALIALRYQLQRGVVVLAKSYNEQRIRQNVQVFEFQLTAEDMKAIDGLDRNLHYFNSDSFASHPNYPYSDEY
The assay is described as follows: Assay of enzymatic activity (substrate specificity) in 293 cells transfected with human type 5 17β-HSD. In kind it is cell-based. Conditions: 0.1 μM 14C-labeled substrate, 1 hour incubation, transfected embryonal kidney (293) cells, FIG. 1A. How it is done: The concentration of each substrate was 0.1 μM. […] The substrates, progesterone (P) and Δ^4 -dione, were added at a concentration of 0.1 μM;
The vectors were transfected using the calcium phosphate procedure described by Kingston, R. E., In: Current Protocols in Molecular Biology, Ausubel et al. eds., pp. 9.1.1-9.1.9, John Wiley & Sons, N.Y. (1987) and used 1 to 10 μg of recombinant plasmid DNA per 10^6 cells. The total amount of DNA is kept at 10 μg of plasmid DNA per 10^6 cells by completing with pCMV plasmid without insert. The cells were initially plated at 10^4 cells/cm^2 in Falcon® culture flasks and grown in Dulbecco's modified Eagle's medium containing 10% (vol/vol) fetal bovine serum (hyclone, Logan, Utah) under a humidified atmosphere of air/CO^2 (95%/5%) at 37° C. and supplemented with 2 mM L-glutamine, 1 mM sodium pyruvate, 100 IU penicillin/ml, and 100 μbg streptomycin sulfate/ml.
See also Lachance et al., J. Biol. Chem., 265:20469-20475 (1990). […] After incubation for 1 hour, the steroids were extracted twice with 2 ml of ether. The organic phase was pooled and evaporated to dryness. The steroids were solubilized in 50 μl of dichloromethane, applied to a Silica gel 60 thin layer chromatography (TLC) plate (Merck, Darmstad, Germany) and then separated by migration in the toluene-acetone (4:1) solvent system (Luu-The, V. et al., J. Invest. Dennatol., 102:221-226 (1994) which is herein incorporated by reference).
As described above, the enzymatic activity of the type 5 17β-HSD was evaluated by transfecting 293 cells with vectors which included the gene encoding human type 5 17β-HSD.

Regarding `C[C@]12CCC(=O)C=C1CC[C@@H]1[C@@H]2CC[C@]2(C)C(=O)CC[C@@H]12` [Δ^4dione, 4-androstene-3,17-dione], the “17β-HSD activity (Δ4-dione converted to testosterone)” value was “high”.

On to `C[C@]12CC[C@@H]3c4ccc(O)cc4CC[C@H]3[C@@H]1CC[C@@H]2O` [E2, estradiol], for which the “ability of the enzyme to transform E1 and E2” value was “negligible”.

Consider `CC(=O)[C@H]1CC[C@H]2[C@@H]3CCC4=CC(=O)CC[C@]4(C)[C@H]3CC[C@]12C` [progesterone], for which the “reductive 20α-HSD activity (progesterone transformed to 20α-OH-P)” value was “high”.

Turning to `C[C@]12CCC(=O)C[C@@H]1CC[C@@H]1[C@@H]2CC[C@]2(C)[C@@H](O)CC[C@@H]12` [DHT, dihydrotestosterone], the “3α-HSD activity (transformation of DHT to 5α-androstane-3α,17β-diol)” value is given as “negligible”.
